Like-named read-outs stand apart in the source and are kept apart here.
Assays:
Format in all cases: cell-based
[1] = system: Poly/Mono-ADP Ribose in U2OS cells; experiment: PAR in cell western assay (parylation) in U2OS cells; settings: read-out: Parylation (U2OS)
Method: U2OS cells are seeded at 2667 cells per well in 24 ul medium into poly-D lysine-coated 384 well plate and incubated in the TC incubator for O/N
The next day, test comps are diluted in a source plate and 6 μL of the diluted comp is added to the cell plate; mixed well and incubated for 6 hrs. DNA damage is induced with 2 mM H2O2 for 10 min. After discarding the medium, cells are fixed in ice cold Methanol at for 20 min at −20C. After a wash step at room temperature, cells are permeabilized with 0.05% NP-40 in PBS for 10 min, followed by wash steps. Cells are blocked with 1% BSA, at room temperature for 1 hr. Cells are stained with anti mono/polyADP ribose antibody (E6F6A, Cell signaling, 1:5000) in 1×PBS/1% BSA/0.05% Tween o/n at 4C.
Next Day, cells are washed and incubated with anti-Rabbit 800CV (Licor antibody, 1:500) and CellTag 700 (Licor, 1:800) in 1×PBS/1% BSA/0.05% Tween for 1 h. After washing, plates are scanned using LICOR and are quantified.
Parylation inhibition is reported as % control inhibition.
(§1) The letter codes for the PARP1-enzyme assay include: A (<1 nM), B (>1-10 nM), C (>10-100 nM), D (>100-1000 nM), E (>1000 nM), and “-” is not tested. The letter codes for the PARP trapping assay, and parylation assay include: A (<10 nM), B (>10-100 nM), C (>100-1000 nM), […], E (>10000 nM), and “-” is not tested.

A2780 cells = experiment: Cell proliferation assay (A2780); settings: 7 days
Method: (§2) Cells are counted, diluted to desired density and 40 μL of cell suspension is added into each 384-well tissue-culture treated plates. Plates are incubated in Tissue Culture incubator at 37° C./5% C02 overnight.
(§3) Next day, 40 nl test compounds that are prepared from source plates are transferred to the seeded cells from overnight. Plates are incubated at 37° C./5% C02 for a total of 7 days. After 7-day incubation, plates are equilibrated to room temperature and 30 ul of Cell Counting-Lite is added to each well for a 30 min incubation followed by reading on EnVision.
(§4) The letter codes for the cell proliferation assay in A2780, HCC1806, and MDA-MB-436 cells include: A (<10 nM), B (>10-100 nM), C (>100-1000 nM), D (>1000-10000 nM), E (>10000 nM), and “-” is not tested.

HCC1806 cells = experiment: Cell proliferation assay (HCC1806); settings: 7 days
Method: as §2, §3, §4

MDA-MB-436 cells = experiment: Cell proliferation assay (MDA-MB-436); settings: 7 days
Method: as §2, §3, §4

PARP1 = PARP1 (Homo sapiens, UniProt P09874); experiment: PARP trapping assay in U2OS cells; parameters: endogenous in cells; host or cells: U2OS; settings: U2OS cells, MMS, 4 hrs; read-out: PARP Trapping (U2OS)
Method: U2OS cells are seeded at 15,000 cells/well in 90 ul medium and incubated in the TC incubator for overnight.
Next day, test compounds are prepared in a source plate along with addition of DNA damage reagent MMS simultaneously and 10 ul of the diluted mixture is added to the cell plate and incubated for 4 hrs under T/C conditions.
After 4 hrs, following aspiration and washing, add 100 ul of cold cytoskeleton removal buffer (0.5% Triton X-100) and incubated for 10 min. At the end of incubation, slowly the buffer is removed, and cells are fixed with ice cold MeOH for 15 min at −20C. Followed by wash steps, cells are blocked with 1×PBS/3% BSA/0.05% Tween for 1 h at room temperature.
Cells are stained with anti PARP1 antibody (abeam ab227244, 1:1000), in 1×PBS/1% BSA overnight at 4C.
Wash and add DAPI, scan cells in Celigo.
Data Analysis: DAPI staining is used to segment nuclei and AF488 fluorescence intensity per nucleus is measured.
as §1

[2] = Homo sapiens, U2OS cells, 6 hrs, 2 mM H2O2

PARP1, sequence (P09874 whole entry): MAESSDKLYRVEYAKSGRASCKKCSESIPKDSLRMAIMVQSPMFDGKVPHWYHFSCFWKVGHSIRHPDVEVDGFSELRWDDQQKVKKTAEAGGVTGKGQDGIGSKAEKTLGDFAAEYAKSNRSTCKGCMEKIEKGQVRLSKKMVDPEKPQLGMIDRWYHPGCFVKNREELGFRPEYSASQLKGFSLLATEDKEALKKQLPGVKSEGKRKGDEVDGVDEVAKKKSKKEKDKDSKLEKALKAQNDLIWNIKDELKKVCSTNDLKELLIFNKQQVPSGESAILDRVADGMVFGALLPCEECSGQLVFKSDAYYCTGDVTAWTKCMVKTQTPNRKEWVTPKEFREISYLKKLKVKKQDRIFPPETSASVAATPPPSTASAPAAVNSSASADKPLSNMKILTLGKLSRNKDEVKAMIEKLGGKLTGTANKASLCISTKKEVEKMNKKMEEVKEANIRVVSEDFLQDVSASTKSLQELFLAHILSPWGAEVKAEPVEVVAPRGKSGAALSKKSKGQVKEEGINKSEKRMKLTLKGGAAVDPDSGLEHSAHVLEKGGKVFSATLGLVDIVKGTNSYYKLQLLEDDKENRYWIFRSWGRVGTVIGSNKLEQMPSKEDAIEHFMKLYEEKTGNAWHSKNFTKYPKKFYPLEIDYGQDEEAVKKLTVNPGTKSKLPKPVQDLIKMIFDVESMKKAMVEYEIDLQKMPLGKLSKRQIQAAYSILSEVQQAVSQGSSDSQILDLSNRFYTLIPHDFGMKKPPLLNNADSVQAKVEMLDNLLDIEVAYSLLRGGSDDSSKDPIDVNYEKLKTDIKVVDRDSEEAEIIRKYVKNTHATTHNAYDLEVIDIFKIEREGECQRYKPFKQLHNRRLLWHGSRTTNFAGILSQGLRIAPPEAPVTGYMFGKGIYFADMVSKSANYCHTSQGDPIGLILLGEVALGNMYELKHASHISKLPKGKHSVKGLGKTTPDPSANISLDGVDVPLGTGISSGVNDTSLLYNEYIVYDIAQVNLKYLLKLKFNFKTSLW

| IC50 [1, 2] [nM] | IC50 (A2780 cells; Homo sapiens, 168 h) [nM] | IC50 (HCC1806 cells; Homo sapiens, 168 h) [nM] | IC50 (MDA-MB-436 cells; Homo sapiens, 168 h) [nM] | IC50 (PARP1) [nM] | IC50 ([1]; U2OS cells, 6 hrs, 2 mM H2O2) [nM] | IC50 (A2780 cells) [nM] | IC50 (HCC1806 cells) [nM] | IC50 (MDA-MB-436 cells) [nM] | IC50 ([1]; Homo sapiens, U2OS, 6 h) [nM] | Compound |
| --- | --- | --- | --- | --- | --- | --- | --- | --- | --- | --- |
| 100 to 1000 | 10 to 100 | 10 to 100 | < 10 | 10 to 100 |  |  |  |  |  | CCc1cccc(-c2cnc(C(=O)NC34CCC(CN5CCN(CC(=O)N6CCN(C(=O)c7cc(Cc8n[nH]c(=O)c9ccccc89)ccc7F)CC6)CC5)(CC3)OC4)c(N)c2)c1 [Compound I-470] |
| 10 to 100 | 10 to 100 | 10 to 100 | < 10 | 10 to 100 |  |  |  |  |  | CCc1cccc(-c2cnc(C(=O)NC34CCC(CN5CCN(CC(=O)N6CCN(C(=O)c7cc(Cc8n[nH]c(=O)c9ccccc89)ccc7F)CC6)CC5)(CC3)OC4)c(NC(C)=O)c2)c1 [Compound I-469] |
| 100 to 1000 | 10 to 100 | 10 to 100 | < 10 | 10 to 100 |  |  |  |  |  | CC1(C(=O)N2CC(c3cccc(C(=O)N[C@@H](C(=O)N4CCC(OC5CCN(CC(=O)N6CCN(C(=O)c7cc(Cc8n[nH]c(=O)c9ccccc89)ccc7F)CC6)CC5)CC4)C4CCCCC4)c3F)CCC2(C)C)CC1 (some centres unmarked) [Compound I-884] |
| 10 to 100 | 10 to 100 | 10 to 100 | < 10 | 10 to 100 |  |  |  |  |  | CC(C)(C)OC(=O)N1CCCC(c2cccc(Oc3cnnc(N4CCC(OC5CCN(CC(=O)N6CCN(C(=O)c7cc(Cc8n[nH]c(=O)c9ccccc89)ccc7F)CC6)CC5)CC4)c3)c2)C1 (centres unmarked) [Compound I-870] |
| < 10 | 100 to 1000 | 100 to 1000 | < 10 | 10 to 100 |  |  |  |  |  | O=C(CN1CCC(OC2CCN(C(=O)c3c(F)cc(-c4cccnn4)cc3F)CC2)CC1)N1CCN(C(=O)c2cc(Cc3n[nH]c(=O)c4ccccc34)ccc2F)CC1 [Compound I-771] |
| 100 to 1000 | 100 to 1000 | 100 to 1000 | < 10 | 100 to 1000 |  |  |  |  |  | CC(C)(C)OC(=O)N[C@@H](C(=O)N1CC[C@H](OC2CCN(CC(=O)N3CCN(C(=O)c4cc(Cc5n[nH]c(=O)c6ccccc56)ccc4F)CC3)CC2)C1)C1CCCCC1 [Compound I-875] |
| < 10 | < 10 | 10 to 100 | < 10 | 10 to 100 |  |  |  |  |  | O=C(CN1CCN(CC2CCN(C(=O)c3c(F)cc(-c4ccccc4)cc3F)CC2)CC1)N1CCN(C(=O)c2cc(Cc3n[nH]c(=O)c4ccccc34)ccc2F)CC1 [Compound I-635] |
| 10 to 100 | 10 to 100 | 100 to 1000 | < 10 | 100 to 1000 |  |  |  |  |  | CC(C)(C)OC(=O)Nc1cc(-c2cccc(C3COC3)c2)cnc1C(=O)NCCOCCNCC(=O)N1CCN(C(=O)c2cc(Cc3n[nH]c(=O)c4ccccc34)ccc2F)CC1 [Compound I-803] |
|  |  |  |  | 10 to 100 | 10 to 100 | 10 to 100 | 10 to 100 | < 10 |  | CC(C)(C)OC(=O)N[C@@H](C(=O)NC12CCC(CN3CCC(C(=O)N4CCN(C(=O)c5cc(Cc6n[nH]c(=O)c7ccccc67)ccc5F)CC4)CC3)(CC1)OC2)C1CCCCC1 [Compound I-993] |
| 10 to 100 | 10 to 100 | 10 to 100 | < 10 | 10 to 100 |  |  |  |  |  | O=C(N[C@@H](C(=O)N1CCC(OC2CCN(CC(=O)N3CCN(C(=O)c4cc(Cc5n[nH]c(=O)c6ccccc56)ccc4F)CC3)CC2)CC1)C1CCCCC1)c1cccc(C2CCCN(C(=O)C34CC(F)(C3)C4)C2)c1F (some centres unmarked) [Compound I-750] |
| 10 to 100 | 10 to 100 | 10 to 100 | < 10 | 10 to 100 |  |  |  |  |  | CC(C)(C)OC(=O)N[C@@H](C(=O)N1C[C@H]2CC[C@@H](C1)[C@H]2OC1CCN(CC(=O)N2CCN(C(=O)c3cc(Cc4n[nH]c(=O)c5ccccc45)ccc3F)CC2)CC1)C1CCCCC1 [Compound I-990] |
| 10 to 100 | 100 to 1000 | 100 to 1000 | < 10 | 10 to 100 |  |  |  |  |  | O=C(CN1CCN(CC2CCN(C(=O)c3c(F)cc(-c4ccncn4)cc3F)CC2)CC1)N1CCN(C(=O)c2cc(Cc3n[nH]c(=O)c4ccccc34)ccc2F)CC1 [Compound I-768] |
| < 10 | 100 to 1000 | 100 to 1000 | < 10 | 10 to 100 |  |  |  |  |  | O=C(CN1CCN(CC2CCN(C(=O)c3c(F)cc(-c4cnccn4)cc3F)CC2)CC1)N1CCN(C(=O)c2cc(Cc3n[nH]c(=O)c4ccccc34)ccc2F)CC1 [Compound I-739] |
| 100 to 1000 | 100 to 1000 | 100 to 1000 | 10 to 100 | 10 to 100 |  |  |  |  |  | CC1(OC2CCN(CC(=O)N3CCN(C(=O)c4cc(Cc5n[nH]c(=O)c6ccccc56)ccc4F)CC3)CC2)CCN(C(=O)[C@H](NC(=O)c2cccc(C3CCCN(C(=O)C45CC(C4)C5)C3)c2F)C2CCCCC2)CC1 (some centres unmarked) [Compound I-892] |
| 10 to 100 | 100 to 1000 | 100 to 1000 | < 10 | < 10 |  |  |  |  |  | O=C(CN1CCC(OC2CCN(C(=O)c3c(F)cc(-c4ccnnc4)cc3F)CC2)CC1)N1CCN(C(=O)c2cc(Cc3n[nH]c(=O)c4ccccc34)ccc2F)CC1 [Compound I-772] |
| 10 to 100 | 100 to 1000 | 100 to 1000 | < 10 | 10 to 100 |  |  |  |  |  | CC(C)(C)OC(=O)N[C@@H](C(=O)N1CCC(C)(OC2CCN(CC(=O)N3CCN(C(=O)c4cc(Cc5n[nH]c(=O)c6ccccc56)ccc4F)CC3)CC2)CC1)C1CCCCC1 [Compound I-871] |
| 100 to 1000 | 100 to 1000 | 100 to 1000 | 10 to 100 | 10 to 100 |  |  |  |  |  | CC1(OC2CCN(CC(=O)N3CCN(C(=O)c4cc(Cc5n[nH]c(=O)c6ccccc56)ccc4F)CC3)CC2)CCN(C(=O)[C@H](NC(=O)c2cccc(C3CCCN(C(=O)C4(C)CC4)C3)c2F)C2CCCCC2)CC1 (some centres unmarked) [Compound I-893] |
| 10 to 100 | 10 to 100 | 100 to 1000 | < 10 | 100 to 1000 |  |  |  |  |  | CCc1cccc(-c2cnc(C(=O)NCCOCCNCC(=O)N3CCN(C(=O)c4cc(Cc5n[nH]c(=O)c6ccccc56)ccc4F)CC3)c(C)c2)c1 [Compound I-489] |
| 10 to 100 | 10 to 100 | 10 to 100 | < 10 |  |  |  |  |  |  | O=C(CN1CCN(C[C@@H]2C[C@H]3CC[C@@H]2CN3C(=O)c2c(F)cc(-c3ccccc3)cc2F)CC1)N1CCN(C(=O)c2cc(Cc3n[nH]c(=O)c4ccccc34)ccc2F)CC1 [Compound I-774] |
| < 10 | < 10 | 10 to 100 | < 10 | 10 to 100 |  |  |  |  |  | CCc1cccc(-c2cc(F)c(C(=O)N3CCC(OC4CCN(CC(=O)N5CCN(C(=O)c6cc(Cc7n[nH]c(=O)c8ccccc78)ccc6F)CC5)CC4)CC3)c(F)c2)c1 [Compound I-590] |
| 10 to 100 | 10 to 100 | 10 to 100 | < 10 | 10 to 100 |  |  |  |  |  | CC1(OC(=O)N[C@@H](C(=O)N2CCC(OC3CCN(CC(=O)N4CCN(C(=O)c5cc(Cc6n[nH]c(=O)c7ccccc67)ccc5F)CC4)CC3)CC2)C2CCCCC2)CCC1 [Compound I-749] |
|  | 1000 to 10000 | 1000 to 10000 | 10 to 100 |  |  |  |  |  | < 10 | O=C(c1cc(Cc2n[nH]c(=O)c3ccccc23)ccc1F)N1CCN(C(=O)C2CC2)CC1 [Olaparib, reference compound] |

| Compound | IC50 [1, 2] [nM] | IC50 (A2780 cells; Homo sapiens, 168 h) [nM] | IC50 (HCC1806 cells; Homo sapiens, 168 h) [nM] | IC50 (MDA-MB-436 cells; Homo sapiens, 168 h) [nM] | IC50 (PARP1) [nM] | IC50 ([1]; U2OS cells, 6 hrs, 2 mM H2O2) [nM] | IC50 (A2780 cells) [nM] | IC50 (HCC1806 cells) [nM] | IC50 (MDA-MB-436 cells) [nM] | IC50 ([1]; Homo sapiens, U2OS, 6 h) [nM] |
| --- | --- | --- | --- | --- | --- | --- | --- | --- | --- | --- |
| CC(C)(C)C(=O)N1CCC[C@@H](c2cccc(C(=O)N[C@@H](C(=O)N3C4CCC3CC(OC3CCN(CC(=O)N5CCN(C(=O)c6cc(Cc7n[nH]c(=O)c8ccccc78)ccc6F)CC5)CC3)C4)C3CCCCC3)c2F)C1 (some centres unmarked) [Compound I-971] | 10 to 100 | 10 to 100 | 100 to 1000 | < 10 | 10 to 100 |  |  |  |  |  |

Reference: patent US20250127907A1, “PARP INHIBITORS” (Stablix, Inc., priority 2023, published 2025)
